The text below walks through data of patent US20050142067A1, “Zintrodes, multitrodes and uses thereof” (priority 2003, published 2005).

The Kd is the free concentration of one partner at which half of the binding sites on the other are occupied at equilibrium, for simple one-to-one binding.

The nature of data set [1]: Leakage of reporter through microdialysis membrane. The data set is classed as physicochemical. The note with it: microdialysis chamber (sock), HEPES external medium. As for the experimental part:
A solution of DPSA was placed in the “sock” and the fluorescence of DPSA inside the dialysis chamber and in the external HEPES buffer solution was measured (FIG. 4A). The chamber was then filled with 10 μM apoCA and the external solution with […] HEPES buffer and 10 μM free zinc (FIG. 4B). Since the microdialysis membrane is impermeable to apoCA, any zinc that passes through the membrane is then trapped inside upon binding to apoCA. […] For example, if free zinc in the biological medium is 2 nM, then 0.90 nM zinc will be trapped within the “sock.”
However, DNSA “leaks out” of the membrane. DNSA reporter was covalently bound to amino-CPG beads using a 12 C or a 14 C tether and placed into the microdialysis membrane or “sock”. […] The DNSA-CPG bead system comprises a “molecular tether” means of entrapment (FIG. 7).

The next data set concerns the target holoCA (Homo sapiens, UniProt P00918). The data set can be described thus: Binding of fluorescent reporter to holoCA. The note with it: order of magnitude in words. The procedure: The measurement is based on a literature method (44, 51). Aliquots of a 1 μM solution of the CA protein are mixed with several concentrations of DPSA, ranging from 1 nM to 10 μM. After 30 minutes of incubation, the fluorescence emission spectrum is measured with excitation at 365 nm and emission at 400-700 nm. Taking the intensity at 560 nm, which is the emission max of an apoCA-DPSA conjugate, at the highest concentration aliquot to represent 99% fractional saturation, and 1% at the lowest concentration aliquot, the fractional saturation is plotted as a function of the DPSA concentration on a logarithmic scale, and the data is fit to a single binding isotherm, e.g. fraction bound=KD/(1+KD) using Kaleidagraph (Synergy Software), or a similar program.
Because of the nature of the sulfonamide binding as a fourth ligand to the active site, DPSA binds as a 1:1 complex at realistic aliquot concentrations. If the fractional saturation is not near 1.0 at higher DPSA concentration because the DPSA binds more weakly to the variant, the curvature of the isotherm will not reach the peak intensity.

The target of another data set is CA-Zn (holoCA) (Homo sapiens, UniProt P00918). The data set can be described thus: Screening of fluorescent reporters with CA and zinc (fluorescence intensity). As for the experimental part: (§1) Stock solutions of the fluorescent reporter were prepared in alcohol and diluted 1000-fold in the final measuring cuvette. Carbonic anhydrase protein (CA) was “apo-ized” as per a standard procedure (50). Zinc was added to a solution of the CA in the presence of the reporter and the change in fluorescence intensity and wavelength of the reporter were measured on a Spex DM-1B fluorescence spectrophotometer using He—Cd laser excitation.

A short description of data set [2]: Spectral characteristics of reporters for CA-based zinc biosensor. The data set is classed as physicochemical. As for the experimental part: as §1
Data set [3] in a line: Fluorescence response to zinc of dye in micropolymer spots on glass slides. The following applies: dye in polymer on glass slide, HEPES pH ˜7.4, 500 μM Zn^2+. The procedure: A proprietary micropolymer was obtained from Gary Kiefer of DOW. Two fluorescence sensors were mixed individually with the micropolymer. One was TFLZN which has a Kd of 10 μM for binding zinc and which is strongly hydrophilic. The other was ZP1, which is more lipophilic, binds zinc with a Kd of 0.5 nM, and is very bright with a quantum yield of 0.9. After mixing, the two solutions were spotted onto acid-cleaned glass slides in spots of 2.5 and 10.0 μL and allowed to cure overnight.
To evaluate the coatings, one microliter of HEPES (50 mM, pH ˜7.4) was put onto one spot on the polymer/probe coatings and a second spot with one microliter of the same HEPES plus 1 microliter of ZnSO4 (final [Zn^2+], 500 μM) was put next to the first spot. Images of the both spots were captured using the exact same camera settings for both spots. […] When the actual fluorescent intensity of the spots was measured using Photoshop, it was observed that the zinc-added spot was from 4-5-fold brighter that the HEPES spot. […] The change in fluorescence was not timed, but in this microscope-measuring system, the change appeared essentially instantaneously, i.e., within the few seconds it took to put the slide back in place, re-focus the microscope, and capture the second image. […] Furthermore, washing the spots with pure HEPES again lowered the fluorescence back to essentially the pre-zinc levels. […]

For data set [4] the following is noted: read-out: Kd for binding zinc; cited from earlier work.
Data set [5] is described as follows: pZn meter calibration with metal buffer (ZP1). The data set is classed as binding. The following applies: 50 μM bicine metal buffer, [ZP1]=100 nM; read-out: KD, fluorescence intensity midpoint. The procedure:
In calibrating the pZn meter using a metal buffer to control free zinc (FIG. 16A), the [ZP1] is <<than the effective [Zn2+ free] because the metal buffer, 50 μM bicine, can supply a large total number of Zn ions, while keeping the concentration of zinc ions fixed. Thus, in this calibration, the fluorescence intensity midpoint is approximately equal to the KD, 0.5 nM where [ZP1]=100 nM. In a second calibration, a ZP1 concentration of 20 nM of zinc, as ZnSO4, is used (FIG. 16B). Because no metal buffer is used and because the ZP1 concentration is much higher than the zinc concentration, this is a stoichiometric or “percent occupancy” titiration in which the fluorescence intensity is simply proportional to the molar ratio, [Zn]:[ZP1}.

The conditions of data set [6]: cited from earlier work.
Another data set concerns rabbit brain. The note with it: 1 mM in dialysis fluid, 10 minutes infusion, anesthetized rabbits, dorsal hippocampus.

Entries after “also recorded” stand apart in the source; their conditions may differ. Like-named read-outs stand apart in the source and are kept apart here.

Description for rabbit brain: The microdialysis probes were aimed at the dorsal hippocampus in two acutely prepared rabbits, as described above, and the rabbits were anesthetized with isofluorane.
This caused spermine NONOate to release NO*, some of which presumably passed through the dialysis membrane and into the brain as a reverse dialysis procedure. The infusion lasted 10 minutes.

As for `CN(C)c1cccc2c(S(N)(=O)=O)cccc12` [DNSA, dansylamide], the “leakage out of microdialysis membrane” value in data set [1] is “leaks out”. Besides, the “binding to holoCA” value at holoCA is on record as “low micromole”. For the same compound, the “increase of fluorescent yield upon binding to holo-CA” value on CA-Zn (holoCA) is 6 fold. Moreover, in data set [2], the Abs max amounted to 332 nm, the Emm max worked out at 560 nm and the “Molar ε” value is reported as 4.7 × 10^3 cm^−1M^−1.

As for `CN(C)c1ccc(-c2cnc(-c3ccc(S(N)(=O)=O)cc3)o2)cc1` [DPSA, dapoxylsulfonamide], the “leakage out of microdialysis membrane” value in data set [1] is “membrane impermeable; also recorded: does not leak out”. Also, the “binding to holoCA” value at holoCA is listed as “low picomole”. At CA-Zn (holoCA), the “increase of fluorescent yield upon binding to holo-CA” value is given as 20 fold. At CA-Zn (holoCA) (1 μM DPSA, alone or with the named CA), the fluorescence intensity came to 70 units. For the same compound, in data set [2], the Abs max turned out to be 355 nm, the Emm max was determined as 605 nm, the “Molar ε” value is 2.2 × 10^4 cm^−1M^−1 and the “absorption λmax” value is 340 nm.

As to `COc1cc(NS(=O)(=O)c2ccc(C(=O)O)cc2)c2nc(C)ccc2c1` [TFLZN], in [3], the “fluorescence of zinc-added spot versus HEPES spot” value is about 15 fold. Further, in data set [4], the Kd was 10000 nM.

As to `O=C(O)c1ccccc1-c1c2cc(Cl)c(=O)c(CN(Cc3ccccn3)Cc3ccccn3)c-2oc2c(CN(Cc3ccccn3)Cc3ccccn3)c(O)c(Cl)cc12` [ZP1, 9-(o-carboxyphenyl)-2,7-dichloro-4,5-bis[bis(2-pyridylmethyl)-aminomethyl]-6-hydroxy-3-xanthanone], in [3], the “fluorescence of zinc-added spot versus HEPES spot” value is on record as 4-5 fold. The Kd was about 0.5 nM in [5] and 0.5 nM in [4]. In addition, the quantum yield result in data set [6] (after zinc binding) is “about 0.87”; in data set [6] (before zinc binding) it was “about 0.39”; in data set [6] (condition not stated) it was 0.9. The excitation wavelength maximum is 515 nm in data set [6] (without zinc) and 507 nm in [6] (zinc bound).

For `O=C(O)c1ccccc1-c1c2cc(Cl)c(=O)cc-2oc2c(CNc3ccccc3CN(Cc3ccccn3)Cc3ccccn3)c(O)ccc12` [ZP4, 9-(o-carboxyphenyl)-2-chloro-5-[2-{bis(2-pyridylmethyl)aminomethyl}-N-methylaniline]-6-hydroxy-3-xanthanone], the quantum yield result is “about 0.34” in [6] (after zinc binding) and “about 0.06” in data set [6] (before zinc binding). Further, the pKa value entry in data set [6] (relative to Zinpyr 1 and Zinpyr 2) was “lower”.

On to `NCCCNCCCCN(CCCN)/[N+]([O-])=N/O` [spermine NONOate], for which the “release of free zinc into dialysate” value in the data set with rabbit brain was “vigorous release of free zinc”.
